Results on one molecule are retold here after patent US20230116399A1, “Tumor Homing Statin Derivatives” (Da Zen Theranostics, Inc., priority 2019, published 2023).

Where two headings read alike, the source gives them in different places. A value given as a limit tells only on which side of the number the result lay.

For one assay, the system named is PC3 (PC). The assay is described as follows: MTT cell viability, PC3. Conditions: Homo sapiens, 48 h / 24 hours, relative IC50. The format is cell-based. On the procedure:
(§1) Cell culture: In the following examples, unless otherwise specified, all cell lines are purchased from American Type Culture Collection and cultured in American Type Culture Collection (ATCC)-recommended media, with fetal bovine serum (FBS) to a final concentration of 10% and 1×penicillin/streptomycin at 37° C. with 5% CO2 in a cell culture incubator, unless otherwise specified. Unless otherwise specified, culture is 2D. Where culture is 3D, low attachment plates are used, with the same media. C4-2B (parental cell line and drug-resistant cells derived therefrom) are cultured in RPMI-1640 with 10% FBS. MDVR cells (an Enzalutamide-resistant variety of C4-2B prostate cancer cells formed as described in Example 4 below) are cultured as indicated for the parental C4-2B cells. 22RV1 Prostate Cancer (PC) cells (ATCC® CRL-2505™, a human prostate carcinoma cell line of epithelial morphology) are cultured in RPMI-1640 with 10% FBS. A549 cells (ATCC® CCL-185™, a human lung carcinoma cell line of epithelial morphology) are cultured in F-12K medium with 10% FBS. A549/DDP cells (Cells were described in DOI: 10.3892/mmr.2014.2163 and in doi: 10.7150/jca.19426; cisplatin resistant cells may be established from exposing parental A549 cells to cisplatin for an extended time). MDR A549/cisplatin lung adenocarcinoma cell line, drug resistant) are cultured in F-12K medium with 10% FBS. […]

The test system of the next assay is EZ-resistant C4-2B (PC). As to the kind of experiment: MTT cell viability, EZ-resistant C4-2B (MDVR). The format is cell-based. Conditions: Homo sapiens, 48 h / 24 hours, relative IC50. The procedure:
as §1

Assay [1] deals with 22RV1 prostate cancer cells. As to the kind of experiment: Cell viability by trypan blue counting, 22RV1. The format is cell-based, human. Conditions: read-out: IC50 for reduction of cell viability/growth inhibition. On the procedure: as §1, with “FBS.” for “FBS. A549 cells (ATCC® CCL-185™, a human lung carcinoma cell line of epithelial morphology) are cultured in F-12K medium with 10% FBS. A549/DDP cells (Cells were described in DOI: 10.3892/mmr.2014.2163 and in doi: 10.7150/jca.19426; cisplatin resistant cells may be established from exposing parental A549 cells to cisplatin for an extended time). MDR A549/cisplatin lung adenocarcinoma cell line, drug resistant) are cultured in F-12K medium with 10% FBS.”
Example 1B: Prostate Cancer (PC) cells (22RV1, ATCC® CRL-2505™, a human prostate carcinoma cell line) are cultured according to the standard protocol, and exposed for 24-48 hours, to 0-50 μM of the respective compound (THSD, unconjugated dye). Cell viability is determined by counting viable cells and dead cells after treatment of the cells with trypan blue dye to distinguish viable from dead cells. […]

Turning to `CCC(C)(C)C(=O)O[C@H]1C[C@@H](C)C=C2C=C[C@H](C)[C@H](CC[C@@H]3C[C@@H](O)CC(=O)O3)[C@H]21` [Simvastatin], the IC50 is 14.8 µM in the assay with PC3 (PC); 25.5 µM with EZ-resistant C4-2B (PC); > 50 µM in assay [1] (22RV1, exposed 24-48 hours, listed as unconjugated statin); > 60 µM in assay [1] (Homo sapiens, 22Rv1, 22RV1, exposed 24-48 hours).
